The values that follow come from patent US9999622B2, “Pyrazolothiazole compound and medicine comprising same” (NIPPON SHINYAKU CO., LTD., priority 2014, dated 2018).

Structures can show the parent of a compound that is named as a salt. A value given as a limit tells only on which side of the number the result lay.

Type in all cases: biochemical
One test concerns the target T1, JAK2 (Homo sapiens, UniProt O60674).
T1 construct: purchased Carna Biosciences, Inc
As to the kind of experiment: JAK tyrosine kinase inhibitory activity in the presence of 1 mM ATP (ELISA), JAK2. The method in brief: (§1)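 Recombinant kinase (7.5 nM JAK1; 0.75 nM JAK2, JAK3 working dilutions) reacted 1 h at 30 °C with 1 mM ATP in Tris-HCl pH 7.5, Tween-20, DTT, on streptavidin plates. Phosphotyrosine detected by HRP anti-pTyr antibody ELISA, TMB absorbance at 450 nm; duplicate wells, DMSO as negative control.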
For orientation: ELISA stands for enzyme-linked immunosorbent assay.

The target of another test is T2, JAK1 (Homo sapiens, UniProt P23458).
T2 construct: purchased Carna Biosciences, Inc
T2 sequence (P23458 whole entry): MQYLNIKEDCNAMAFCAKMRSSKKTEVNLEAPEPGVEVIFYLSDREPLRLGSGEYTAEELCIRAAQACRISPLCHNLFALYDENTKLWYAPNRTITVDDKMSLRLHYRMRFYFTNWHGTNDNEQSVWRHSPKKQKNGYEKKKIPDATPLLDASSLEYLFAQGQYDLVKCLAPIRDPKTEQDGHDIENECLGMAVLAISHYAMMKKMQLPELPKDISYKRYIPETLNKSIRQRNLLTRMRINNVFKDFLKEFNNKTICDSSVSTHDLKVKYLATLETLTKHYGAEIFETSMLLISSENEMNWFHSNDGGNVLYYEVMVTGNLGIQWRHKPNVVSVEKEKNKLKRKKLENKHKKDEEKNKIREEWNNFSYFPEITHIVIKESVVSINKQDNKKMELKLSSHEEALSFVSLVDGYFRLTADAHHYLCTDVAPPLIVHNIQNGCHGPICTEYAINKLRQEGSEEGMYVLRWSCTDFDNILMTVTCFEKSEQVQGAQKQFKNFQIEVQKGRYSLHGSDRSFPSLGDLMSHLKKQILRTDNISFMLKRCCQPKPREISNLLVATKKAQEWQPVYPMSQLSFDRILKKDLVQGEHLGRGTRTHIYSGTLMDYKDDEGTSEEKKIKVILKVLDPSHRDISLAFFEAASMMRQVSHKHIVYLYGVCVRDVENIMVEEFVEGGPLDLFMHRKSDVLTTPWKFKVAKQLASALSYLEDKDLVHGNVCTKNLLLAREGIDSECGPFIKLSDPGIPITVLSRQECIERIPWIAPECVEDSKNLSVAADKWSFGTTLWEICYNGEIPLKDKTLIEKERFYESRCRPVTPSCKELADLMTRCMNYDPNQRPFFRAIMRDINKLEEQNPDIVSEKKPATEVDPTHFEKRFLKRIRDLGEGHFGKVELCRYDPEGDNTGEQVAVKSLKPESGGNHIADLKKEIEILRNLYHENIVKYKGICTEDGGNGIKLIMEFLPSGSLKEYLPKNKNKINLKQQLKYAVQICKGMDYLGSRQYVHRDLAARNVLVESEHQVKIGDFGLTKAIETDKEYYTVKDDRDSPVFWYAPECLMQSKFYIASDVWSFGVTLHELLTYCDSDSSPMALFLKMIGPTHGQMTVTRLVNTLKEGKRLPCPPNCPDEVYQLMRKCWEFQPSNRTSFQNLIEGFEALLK
As to the kind of experiment: JAK tyrosine kinase inhibitory activity in the presence of 1 mM ATP (ELISA), JAK1. The method in brief:
as §1

The next test has as its target T3, JAK3 (Homo sapiens, UniProt P52333).
T3 construct: purchased Carna Biosciences, Inc
T3 sequence (P52333 1-1124): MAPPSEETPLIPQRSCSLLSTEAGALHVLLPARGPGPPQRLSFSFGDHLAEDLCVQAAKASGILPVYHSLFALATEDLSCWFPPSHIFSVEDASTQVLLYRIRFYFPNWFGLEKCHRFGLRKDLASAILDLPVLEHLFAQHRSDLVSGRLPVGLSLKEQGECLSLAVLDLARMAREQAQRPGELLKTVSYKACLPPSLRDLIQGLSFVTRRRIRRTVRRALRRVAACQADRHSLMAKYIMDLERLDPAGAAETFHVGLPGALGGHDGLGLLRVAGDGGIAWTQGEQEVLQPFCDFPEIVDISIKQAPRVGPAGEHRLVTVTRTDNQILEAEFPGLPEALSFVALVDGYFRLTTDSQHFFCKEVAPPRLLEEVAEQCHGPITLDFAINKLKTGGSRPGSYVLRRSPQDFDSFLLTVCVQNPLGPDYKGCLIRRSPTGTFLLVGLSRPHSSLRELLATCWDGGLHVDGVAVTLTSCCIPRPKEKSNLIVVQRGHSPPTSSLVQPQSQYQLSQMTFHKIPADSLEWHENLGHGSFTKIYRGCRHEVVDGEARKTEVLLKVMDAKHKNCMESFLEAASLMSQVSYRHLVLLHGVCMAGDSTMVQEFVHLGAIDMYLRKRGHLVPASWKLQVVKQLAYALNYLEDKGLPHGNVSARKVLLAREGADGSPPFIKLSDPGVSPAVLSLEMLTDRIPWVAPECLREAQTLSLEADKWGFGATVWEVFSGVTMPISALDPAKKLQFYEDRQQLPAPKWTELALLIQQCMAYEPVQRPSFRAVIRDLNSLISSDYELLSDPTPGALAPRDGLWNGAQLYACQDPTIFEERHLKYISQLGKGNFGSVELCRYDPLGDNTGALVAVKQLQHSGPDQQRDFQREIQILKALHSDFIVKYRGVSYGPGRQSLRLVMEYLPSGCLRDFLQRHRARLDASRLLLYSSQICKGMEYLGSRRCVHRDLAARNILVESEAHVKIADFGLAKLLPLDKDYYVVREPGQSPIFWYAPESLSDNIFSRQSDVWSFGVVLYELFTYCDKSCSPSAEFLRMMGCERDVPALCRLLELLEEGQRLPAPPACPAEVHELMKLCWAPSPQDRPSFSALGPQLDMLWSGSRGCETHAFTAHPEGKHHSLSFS
As to the kind of experiment: JAK tyrosine kinase inhibitory activity in the presence of 1 mM ATP (ELISA), JAK3. The method in brief:
as §1

T1 sequence (O60674 whole entry): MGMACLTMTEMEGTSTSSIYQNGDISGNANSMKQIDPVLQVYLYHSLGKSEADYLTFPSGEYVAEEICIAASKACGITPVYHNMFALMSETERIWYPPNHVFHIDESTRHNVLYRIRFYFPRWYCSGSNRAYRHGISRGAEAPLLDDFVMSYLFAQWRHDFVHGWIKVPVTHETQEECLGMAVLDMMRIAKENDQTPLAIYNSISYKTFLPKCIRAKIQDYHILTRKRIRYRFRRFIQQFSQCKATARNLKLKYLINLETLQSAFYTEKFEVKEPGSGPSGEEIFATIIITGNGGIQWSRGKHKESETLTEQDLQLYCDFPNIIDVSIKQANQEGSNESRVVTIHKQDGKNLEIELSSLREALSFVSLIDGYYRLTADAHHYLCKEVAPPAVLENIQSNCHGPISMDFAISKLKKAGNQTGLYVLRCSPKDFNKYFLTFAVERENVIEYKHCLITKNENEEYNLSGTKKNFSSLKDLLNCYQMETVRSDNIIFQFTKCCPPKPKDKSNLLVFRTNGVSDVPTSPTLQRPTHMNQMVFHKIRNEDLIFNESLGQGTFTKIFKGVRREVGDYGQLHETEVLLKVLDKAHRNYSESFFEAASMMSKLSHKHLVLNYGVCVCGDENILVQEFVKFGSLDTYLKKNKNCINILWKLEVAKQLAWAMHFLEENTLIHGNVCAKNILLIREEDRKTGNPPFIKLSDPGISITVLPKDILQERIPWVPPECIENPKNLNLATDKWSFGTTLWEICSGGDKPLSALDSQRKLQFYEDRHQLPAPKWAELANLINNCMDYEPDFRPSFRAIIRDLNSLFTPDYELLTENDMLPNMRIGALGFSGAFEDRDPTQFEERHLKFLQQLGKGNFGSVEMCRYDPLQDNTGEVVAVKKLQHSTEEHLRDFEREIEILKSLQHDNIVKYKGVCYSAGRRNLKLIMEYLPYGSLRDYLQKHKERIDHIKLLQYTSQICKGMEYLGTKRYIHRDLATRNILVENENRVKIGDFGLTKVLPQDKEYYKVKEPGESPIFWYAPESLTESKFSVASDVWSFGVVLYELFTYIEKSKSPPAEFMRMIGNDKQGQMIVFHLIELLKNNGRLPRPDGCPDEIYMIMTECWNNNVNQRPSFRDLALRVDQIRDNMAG

As to `COC(=O)NC1CCN(C(=O)c2cc(N(C)C(C)(C)C)nc(-c3cnn4ccsc34)n2)CC1` [Example 132, Methyl [1-({6-[tert-butyl(methyl)amino]-2-(pyrazolo[5,1-b][1,3]thiazol-7-yl)pyrimidin-4-yl}carbonyl)piperidin-4-yl]carbamate hydrochloride], the concentration for half-maximal inhibition (IC50) is > 10000 nM on JAK2, 790 nM at JAK1 and > 10000 nM on JAK3.

In the case of `CCN(c1cc(C(=O)N2CCC(O)CC2)nc(-c2cnn3ccsc23)n1)C(C)(C)C` [Example 133, {6-[tert-Butyl(ethyl)amino]-2-(pyrazolo[5,1-b][1,3]thiazol-7-yl)pyrimidin-4-yl}(4-hydroxypiperidin-1-yl)methanone], the half-maximal inhibitory concentration (IC50) on JAK2 is > 10000 nM; on JAK1, 2900 nM; at JAK3, > 10000 nM.

`CC(C)(C)Nc1cc(C(=O)N2CCC(NC(=O)OC3CC3)CC2)nc(-c2cnn3ccsc23)n1` [Example 135, Cyclopropyl (1-{[6-(tert-butylamino)-2-(pyrazolo[5,1-b][1,3]thiazol-7-yl)pyrimidin-4-yl]carbonyl}piperidin-4-yl)carbamate]: the results for the IC50 at JAK2, at JAK1 and on JAK3 were 2400 nM, 68 nM and 3700 nM, respectively.

On to `CC(C)[C@@H](C)Nc1cc(C(=O)N2CCC(NC(=O)C(F)F)CC2)nc(-c2cnn3ccsc23)n1` [Example 136, 2,2-Difluoro-N-(1-{[6-{[(2R)-3-methylbutan-2-yl]amino}-2-(pyrazolo[5,1-b][1,3]thiazol-7-yl)pyrimidin-4-yl]carbonyl}piperidin-4-yl)acetamide], for which the IC50 came to 1400 nM on JAK2, 490 nM on JAK1 and 3500 nM on JAK3.

In the case of `CN(C)C(=O)NC1CCN(C(=O)c2cc(NCC(C)(C)C)nc(-c3cnn4ccsc34)n2)CC1` [Example 137, 3-[1-({6-[(2,2-Dimethylpropyl)amino]-2-(pyrazolo[5,1-b][1,3]thiazol-7-yl)pyrimidin-4-yl}carbonyl)piperidin-4-yl]-1,1-dimethylurea], the figures for the IC50 on JAK2, at JAK1 and on JAK3 were 1400 nM, 640 nM and 4200 nM, respectively.

On to `C[C@@H](Nc1cc(C(=O)N2CCC(NC(=O)N(C)C)CC2)nc(-c2cnn3ccsc23)n1)C1CC1` [Example 138, 3-(1-{[6-{[(1R)-1-Cyclopropylethyl]amino}-2-(pyrazolo[5,1-b][1,3]thiazol-7-yl)pyrimidin-4-yl]carbonyl}piperidin-4-yl)-1,1-dimethylurea], for which the IC50 is 2000 nM at JAK2, 650 nM at JAK1 and 4300 nM at JAK3.

Regarding `CC(C)OC(=O)NC1CCN(C(=O)c2cc(NC3(C)COC3)nc(-c3cnn4ccsc34)n2)CC1` [Example 139, Propan-2-yl [1-({6-[(3-methyloxetan-3-yl)amino]-2-(pyrazolo[5,1-b][1,3]thiazol-7-yl)pyrimidin-4-yl}carbonyl)piperidin-4-yl]carbamate], the IC50 on JAK2 was 2900 nM; at JAK1, 43 nM; at JAK3 it was 2100 nM.

On to `COC(=O)NC1CCN(C(=O)c2cc(NC(C3CC3)C3CC3)nc(-c3cnn4ccsc34)n2)CC1` [Example 140, Methyl [1-({6-[(dicyclopropylmethyl)amino]-2-(pyrazolo[5,1-b][1,3]thiazol-7-yl)pyrimidin-4-yl}carbonyl)piperidin-4-yl]carbamate], for which the IC50 is 770 nM at JAK2, 280 nM at JAK1 and 340 nM at JAK3.

Regarding `COC(=O)NC1CCN(C(=O)c2cc(Oc3ccccc3)nc(-c3cnn4ccsc34)n2)CC1` [Example 141, Methyl (1-{[6-phenoxy-2-(pyrazolo[5,1-b][1,3]thiazol-7-yl)pyrimidin-4-yl]carbonyl}piperidin-4-yl)carbamate], the IC50 at JAK2 is > 10000 nM; on JAK1, 1100 nM; on JAK3, > 10000 nM.

For the compound `COC(=O)NC1CCN(C(=O)c2cc(NC3CCN(C(=O)OC(C)(C)C)CC3)nc(-c3cnn4ccsc34)n2)CC1` [Example 142, tert-Butyl 4-{[6-({4-[(methoxycarbonyl)amino]piperidin-1-yl}carbonyl)-2-(pyrazolo[5,1-b][1,3]thiazol-7-yl)pyrimidin-4-yl]amino}piperidine-1-carboxylate], the IC50 at JAK2 was > 10000 nM; on JAK1, 1200 nM; on JAK3 it was > 10000 nM.

With `COC(=O)NC1CCN(C(=O)c2cc(NC3CCNCC3)nc(-c3cnn4ccsc34)n2)CC1` [Example 143, Methyl (1-{[6-(piperidin-4-ylamino)-2-(pyrazolo[5,1-b][1,3]thiazol-7-yl)pyrimidin-4-yl]carbonyl}piperidin-4 yl)carbamate dihydrochloride], the IC50 was > 10000 nM on JAK2, 1900 nM at JAK1 and > 10000 nM at JAK3.

With `COC(=O)NC1CCN(C(=O)c2cc(NC3(C#N)CC3)nc(-c3cnn4ccsc34)n2)CC1` [Example 144, Methyl [1-({6-[(1-cyanocyclopropyl)amino]-2-(pyrazolo[5,1-b][1,3]thiazol-7-yl)pyrimidin-4-yl}carbonyl)piperidin-4-yl]carbamate], the values for the IC50 at JAK2, on JAK1 and on JAK3 were > 10000 nM, 480 nM and 6600 nM, respectively.

`COC(=O)NC1CCN(C(=O)c2nc(-c3cnn4ccsc34)nc(N[C@@H](C)C3CC3)c2OC)CC1` [Example 145, Methyl (1-{[6-{[(1S)-1-cyclopropylethyl]amino} 5 methoxy-2-(pyrazolo[5,1-b][1,3]thiazol-7-yl)pyrimidin-4-yl]carbonyl}piperidin-4-yl)carbamate]: the IC50 worked out at 1200 nM at JAK2, 270 nM at JAK1 and 1400 nM on JAK3.

With `COC(=O)NC1CCN(C(=O)c2nc(-c3cnn4ccsc34)nc(N[C@H](C)C(C)(C)C)c2OC)CC1` [Example 146, Methyl (1-{[6-{[(2R)-3,3-dimethylbutan-2-yl]amino}-5-methoxy-2-(pyrazolo[5,1-b][1,3]thiazol-7-yl)pyrimidin-4-yl]carbonyl}piperidin-4-yl)carbamate], the IC50 at JAK2 stood at 1600 nM; on JAK1, 270 nM; at JAK3, 1400 nM.

With `COC(=O)NC1CCN(C(=O)c2cc(N[C@H]3CCN(C(=O)OC(C)(C)C)C3)nc(-c3cnn4ccsc34)n2)CC1` [Example 147, tert-Butyl (3S)-3-{[6 {(4 [(methoxycarbonyl)amino]piperidin-1-yl}carbonyl)-2-(pyrazolo[5,1-b][1,3]thiazol-7-yl)pyrimidin-4-yl]amino}pyrrolidine-1-carboxylate], the results for the half-maximal inhibitory concentration (IC50) on JAK2, at JAK1 and on JAK3 were > 10000 nM, 2600 nM and > 10000 nM, respectively.

On to `COC(=O)NC1CCN(C(=O)c2cc(N[C@@H]3CCN(C(=O)OC(C)(C)C)C3)nc(-c3cnn4ccsc34)n2)CC1` [Example 148, tert-Butyl (3R)-3-{[6-({4-[(methoxycarbonyl)amino]piperidin-1-yl}carbonyl)-2-(pyrazolo[5,1-b][1,3]thiazol-7-yl)pyrimidin-4-yl]amino}pyrrolidine-1-carboxylate], for which the IC50 on JAK2 was > 10000 nM; at JAK1 it was 1600 nM; on JAK3 it was > 10000 nM.

For the compound `COC(=O)NC1CCN(C(=O)c2cc(N[C@H]3CCNC3)nc(-c3cnn4ccsc34)n2)CC1` [Example 149, Methyl [1-({2-(pyrazolo[5,1-b][1,3]thiazol-7-yl)-6-[(3S)-pyrrolidin-3-ylamino]pyrimidin-4-yl}carbonyl)piperidin-4-yl]carbamate dihydrochloride], the IC50 at JAK2 was > 10000 nM; at JAK1, 1000 nM; at JAK3 it was > 10000 nM.

What is called IC50 is the point on the concentration scale where inhibition reaches its midpoint.
